Reference: patent US11739122B2, “Glycopeptide antibiotic compounds, methods for producing the same, and uses thereof” (Academia Sinica, priority 2019, dated 2023)
In brackets after ≈: the same amount, converted by molar mass. Several values for one entry are separate records, joined by “and”; a condition that tells them apart may be missing. Identical values can stand only once. Counter-ions that a name gives are not always drawn. Like-named read-outs stand apart in the source and are kept apart here.

Tests used:
[1] = tested on: VRE ATCC 700802 (vanB); test: MIC, broth microdilution; assay type: cell-based, enterococci
Method: (§1) Determination of Minimal Inhibitory Concentration (MIC) for Vancomycin, Teicoplanin and Tei-Analogs Versus Selected Strains
(§2) MICs were determined by the broth microdilution method. Specifically, 12 Colonies of the test strain were picked up from 18-24 hour agar cultures and freshly inoculated into broth mediums until reaching the turbidity of a 0.5 McFarland standard. The broth culture was adjusted with broth medium to approximately 1×10^8 CFUmL^−1. […] The plates were incubated in 37° C. for 18-24 hours and monitored for the wells of the positive control, where cells grew, and the wells of the negative control, where wells should not grow. The MIC value was determined for the concentration of a test compound, at which there was no visible growth in the well.

[2] = tested on: VRE ATCC 700221 (vanA); test: MIC, broth microdilution; assay type: cell-based, enterococci
Method: as §1, §2

[3] = tested on: VRE ATCC 700425 (vanC); test: MIC, broth microdilution; assay type: cell-based, enterococci
Method: as §1, §2

[4] = tested on: MRSA ATCC BAA-44; test: MIC, broth microdilution; assay type: cell-based, Staphylococcus aureus
Method: as §1, §2

[5] = tested on: MRSA ATCC 700787 VRSA; test: MIC, broth microdilution; assay type: cell-based, Staphylococcus aureus
Method: as §1, §2

[6] = tested on: MRSA ATCC 700789 VRSA; test: MIC, broth microdilution; assay type: cell-based, Staphylococcus aureus
Method: as §1, §2

[7] = tested on: S. aureus ATCC 29213; test: MIC, broth microdilution; assay type: cell-based, Staphylococcus aureus
Method: as §1, §2

[8] = tested on: MRSA ATCC BAA-38; test: MIC, broth microdilution; assay type: cell-based, Staphylococcus aureus
Method: as §1, §2

[9] = tested on: MRSA ATCC BAA-39; test: MIC, broth microdilution; assay type: cell-based, Staphylococcus aureus
Method: as §1, §2

[10] = tested on: MRSA ATCC 43300; test: MIC, broth microdilution; assay type: cell-based, Staphylococcus aureus
Method: as §1, §2

[11] = tested on: MRSA ATCC 700698 hVISA; test: MIC, broth microdilution; assay type: cell-based, Staphylococcus aureus
Method: as §1, §2

[12] = tested on: MRSA ATCC 700787; test: Thin-section TEM, cell wall morphology; assay type: cell-based, Staphylococcus aureus
Method: Thin-Section Transmission Electron Microscopy (TEM)
An overnight cultured MRSA ATCC 700787, VRE ATCC 700221 or A. baumannii ATCC 19606 was individually sub-cultured into a fresh medium. Bacteria at the exponential phase were treated with a given test compound at a concentration of 4×MIC for 1-4 hour at 37° C. and followed by wash and resuspension in PBS. Bacteria cells for the TEM analysis were prepared as follows: Cells were fixed with 2.5% glutaraldehyde for 30 minutes. After the fixation, cells were washed twice with PBS and fixed with 1% osmium tetraoxide for another 30 minutes. All the buffer was removed with distilled water. The cells were then stained with 1% uranyl acetate and dehydrated with a graded ethanol solution. Cells were embedded in resin. Finally, each sample was cut into thin slices of approximately 90 nm with a glass knife and stained with uranyl acetate. The images of bacterial morphological were recorded.
The cell wall/membrane apparently is the targets, while the extent of damage depends on what compound imposes on the strain. […] Cell wall thickening has been a common phenotype in clinical MRSA isolates, which may well be a phenotypic determinant for VRSA. The systemic cell-wall damage may account for the cell-wall biosynthesis crippled all over the cell surface in cell-wall thickening strains, thus leading cells to lysis as a result of the osmotic pressure of cytoplasm.

[13] = tested on: A. baumannii ATCC 19606; test: MIC, broth microdilution; assay type: cell-based, Acinetobacter baumannii; settings: Acinetobacter baumannii
Method: as §1, §2

[14] = tested on: E. faecalis ATCC 29302; test: MIC, broth microdilution; assay type: cell-based
Method: as §1, §2

[15] = tested on: A. baumannii ATCC 19606; test: In vivo efficacy, intranasal A. baumannii infection; set-up: species or system mice; settings: BAL fluid, 24 hours post-inoculation; 24 and kanamycin 30, amikacin 15 mgkg^−1
Method: In Vivo Efficacy of r6,N-Acyl-Glc Tei Analogs
Female C57BL/6 mice (6 weeks of age; about 16-19 g, 3-5 mice per group) were intraperitoneally inoculated with 300 μL of MRSA ATCC 700787 suspension (about 10^7 CFUmL^−1). For intranasal A. baumannii (ATCC 19606) inoculation, mice were anesthetized, and inoculated intranasally with about 10^7-10^8 CFUmL^−1 A. baumannii in 50 μL of PBS. Treatments were started 1 hour after the bacterial challenge. The dose administration to mice was set as follows: teicoplanin (1) or r6,C8-Tei analog (14) 20 mgkg^−1 was intraperitoneally injected to MRSA-infected mice; amikacin (15 mgkg^−1), teicoplanin (1) (30 mgkg^−1), kanamycin (30 mgkg^−1) or r1,Me2-r6,guanidino-C8 analog (24) (30 mgkg^−1) was intraperitoneally injected to AB-infected mice. To assess bacteraemia, the test animals were sacrificed to collect 1 mL of peritoneal fluid (PF) for MRSA counting or the lungs were lavaged to collect 0.6 mL bronchoalveolar lavage (BAL) fluid for A. baumannii counting.
For AB (ATCC 19606), female C57BL/6 mice were first anesthetized by intraperitoneal injection of zoletil and then intranasally inoculated with 50 μL of bacteria in a PBS solution (about 10^7-10^8 CFUmL^−1). The treatment started 1 hour post-infection with a single dose of compound 24 (30 mgkg^−1), compound 1 (30 mgkg^−1), amikacin (15 mgkg^−1), or kanamycin (30 mgkg^−1), where saline/compound 1 and amikacin/kanamycin respectively served as negative and positive controls. To assess the density of bacteraemia, the lungs of mice were lavaged to collect 0.6 mL bronchoalveolar lavage (BAL) fluid from each mouse at 24 hours post-inoculation. For saline/compound 1 treated controls, the bacterial load was counted (about 4 log CFUmL^−1, FIG. 4B), where the bacterial load was reduced by 0.5 or 1 log CFUmL^−1 with the treatment of amikacin/kanamycin or compound 24, respectively.

[16] = tested on: HEK293T cells; test: Alamar Blue cell viability assay; assay type: cell-based, human; settings: up to 100 μgmL^−1; 2 and 24 h
Method: The Alamar Blue (AB) assay, which includes a redox indicator that changes color or emits fluorescence in response to a metabolic activity, was used to assess in vitro mammalian cell cytotoxicity (human embryonic kidney cells (HEK293T)) upon an antibiotic treatment. 2×10^5 cellsmL^−1 were allowed to adhere on 96-well plates overnight at 37° C. in a humidified incubator (5% CO2 atmosphere). Tested compounds were dissolved in 50% DMSO to make 1 mgmL^−1 of a stock solution. Cells were separately aliquoted with 5 μL of a test compound (final concentration: 100 μgmL^−1) and incubated. PBS and 50% DMSO, which was used to dissolve compounds, served as a control. Cell viability was triplicated and assessed at 2 and 24 hour time points for each test compound, on which the measurements followed the manufacturer protocol.

## CN[C@H](CC(C)C)C(=O)N[C@H]1C(=O)N[C@@H](CC(N)=O)C(=O)N[C@H]2C(=O)N[C@H]3C(=O)N[C@H](C(=O)N[C@H](C(=O)O)c4cc(O)cc(O)c4-c4cc3ccc4O)[C@H](O)c3ccc(c(Cl)c3)Oc3cc2cc(c3O[C@@H]2O[C@H](CO)[C@@H](O)[C@H](O)[C@H]2O[C@H]2C[C@](C)(N)[C@H](O)[C@H](C)O2)Oc2ccc(cc2Cl)[C@H]1O [Compound 2, vancomycin, reference compound]
[1]; Enterococcus
  MIC: 64 µg/mL (≈ 44.2 µM)
[2]; Enterococcus
  MIC: > 128 µg/mL
[3]; Enterococcus
  MIC: 16 µg/mL (≈ 11 µM)
[4]; Staphylococcus aureus
  MIC: 2 µg/mL (≈ 1.38 µM)
[5]; Staphylococcus aureus
  MIC: 16 µg/mL (≈ 11 µM)
[6]; Staphylococcus aureus
  MIC: 16 µg/mL (≈ 11 µM)
[7]; Staphylococcus aureus, ATCC29213
  MIC: 1 µg/mL (≈ 0.69 µM)
[8]; Staphylococcus aureus
  MIC: 1 µg/mL (≈ 0.69 µM)
[9]; Staphylococcus aureus
  MIC: 1 µg/mL (≈ 0.69 µM)
[10]; Staphylococcus aureus
  MIC: 1 µg/mL (≈ 0.69 µM)
[11]; Staphylococcus aureus
  MIC: 4 µg/mL (≈ 2.76 µM)
[12]
  cell wall morphology by TEM: floppy
[13]; ATCC19606
  MIC: 200 µM and 297 µg/mL
[13]; ATCC19606, read-out: MIC on AB
  MIC: > 190 µg/mL
[14]; Enterococcus faecalis, ATCC29302
  MIC: 2 µg/mL (≈ 1.38 µM)

## NC[C@H]1O[C@H](O[C@H]2[C@H](O)[C@@H](O[C@H]3O[C@H](CO)[C@@H](O)[C@H](N)[C@H]3O)[C@H](N)C[C@@H]2N)[C@H](O)[C@@H](O)[C@@H]1O [kanamycin sulfate, reference compound]
[13]; ATCC19606
  MIC: 25 µM and 14.6 µg/mL
[13]; ATCC19606, read-out: MIC on AB
  MIC: 14.6 µg/mL
[15]
  bacterial load reduced by: 0.5 log CFUmL^−1

## N[C@H]1C(=O)N[C@@H]2Cc3ccc(c(Cl)c3)Oc3cc4cc(c3O)Oc3ccc(cc3Cl)[C@@H](O[C@@H]3O[C@H](CO)[C@@H](O)[C@H](O)[C@H]3NC(=O)CCCCc3ccc(F)cc3)[C@@H]3NC(=O)[C@H](NC(=O)[C@@H]4NC(=O)[C@@H](NC2=O)c2cc(O)cc(c2)Oc2cc1ccc2O)c1ccc(O)c(c1)-c1c(O)cc(O)cc1[C@@H](C(=O)O)NC3=O [Compound 18]
[1]; VRE ATCC 700802 (vanB)
  MIC: 0.25 µg/mL (≈ 0.163 µM)
[2]; VRE ATCC 700221 (vanA)
  MIC: >16 µg/mL
[3]; VRE ATCC 700425 (vanC)
  MIC: 1 µg/mL (≈ 0.65 µM)
[4]; MRSA ATCC BAA-44
  MIC: 0.016 µg/mL (≈ 0.0104 µM)
[5]; MRSA ATCC 700787 VRSA
  MIC: 0.125 µg/mL (≈ 0.0813 µM)
[6]; MRSA ATCC 700789 VRSA
  MIC: 0.5 µg/mL (≈ 0.325 µM)
[7]; SA ATCC 29213
  MIC: 0.063 µg/mL (≈ 0.041 µM)
[8]; MRSA ATCC BAA-38
  MIC: 0.016 µg/mL (≈ 0.0104 µM)
[9]; MRSA ATCC BAA-39
  MIC: 0.063 µg/mL (≈ 0.041 µM)
[10]; MRSA ATCC 43300
  MIC: 0.031 µg/mL (≈ 0.0202 µM)
[11]; MRSA ATCC 700698 hVISA
  MIC: 0.016 µg/mL (≈ 0.0104 µM)
[16]
  cytotoxicity to HEK293T cells: did not exhibit any observable toxicity
[14]; EF ATCC 29302
  MIC: 0.25 µg/mL (≈ 0.163 µM)
